Assay results: US12138383B2, “Heating unit for use in a drug delivery device” (ALEXZA PHARMACEUTICALS, INC., priority 2007, dated 2024)
Blank lines part the entries; values can stand above or below the compound they belong to.

Assay: Aerosol purity of condensation aerosol vaporized from drug-coated substrate in substrate screening apparatus (HPLC of filter extract)
Format: physicochemical
Settings: for Aerosol Purity (% ± SD): perforated 304 stainless steel, 0.4 mg/cm^2, approx. 375° C.; for Aerosol Purity (%): 14 μm coating, 30 liters/minute
Description: The substrate screening apparatus 400 is made of a machined plastic (polyoxymethylene, DELRIN® Acetal Resin, DuPont, Wilmington, DE) block 402 with a 2 cm^2 cross-sectional area for mounting a substrate 412. Block 402 includes a first airway 404 extending from first inlet 414 to outlet 422. Block 402 also include a second airway 406 extending from second inlet 416 to substrate 412, where it typically joins the first airway. The substrate 412 is mounted in the substrate screening apparatus 400 across two electrodes 420. A first air flow 414 is established in first airway 404 and a second air flow 416 is established in second airway 406 such that the second air flow 416 passes from the second airway 406 to first airway 404 through holes in the substrate 412. While providing air flows 414 and 416, the substrate 412 is heated, typically by discharging a capacitor (not shown) across the substrate 412. In a one embodiment, the flow of air passing through holes in the substrate 412 is in a direction orthogonal to that of air flow 414. Substrate 412 is coated with a drug composition film. The substrate 412 is heated to vaporized all or a portion of the drug composition. The vaporized drug subsequently cools and condenses to form a condensation aerosol that is carried to the outlet by air flow 414, joined by air flow 416). Accordingly, the condensation aerosol is emitted from the outlet 422.
The test substrates were then coated with a drug composition. The drug was typically dissolved in a volatile organic solvent (e.g., dichloromethane/methanol mixture or acetone or other suitable organic solvent) and then spray-coated onto the test substrates using an automated spray coater. Coating parameters, such as the drug concentration in the coating solution, solution flow rate, were selected to obtain a uniform drug coating of the desired coating density (i.e., mass/area).
Total air flow through the substrate screening apparatus was set by providing air flows 414 and 416 at a desired ratio. (As used herein, “across” air flow refers to air flow 414 and “bottom” air flow refers to air flow 416.) Brass electrodes 420 attached to the substrate screening apparatus 400 were used to clamp the substrate 412 in place and provide electrical connections. For most experiments, a 1-Farad capacitor was used as the energy source. The capacitor was typically charged to 11-14 volts, depending on the desired substrate temperature. A high current relay was used to connect the circuit and discharge the capacitor across the substrate to induce heating and vaporization of the drug.
FIG. 5 is a schematic of another embodiment of a substrate screening apparatus 500 that was used to direct air flow through the holes of coated polyimide film (KAPTON® polyimide film) substrates (see FIGS. 2A and 2B). Substrate screening apparatus 500 is similar in configuration and operation to substrate screening apparatus 400, with the exception that substrate screening apparatus 500 includes two electrodes 502 on the same side of the screening apparatus 500, whereas substrate screening apparatus 400 includes two electrodes 420 on opposite sides of the screening apparatus 400. In the examples using polyimide film substrates described below, a polyimide film substrate coated with a drug composition was placed in substrate screening apparatus 500 across electrodes 502. A computer-controlled power supply was connected to the electrodes. The power supply was typically capable of heating the polyimide film substrate to the target temperature within 300 milliseconds, and the substrate was kept at the target temperature for a duration of 1 second.
To determine aerosol purity and emitted dose, a 2 μm Teflon filter (ZEFLUOR PTFE filters, available from Zefon International, Inc., Ocala, FL) was placed immediately downstream from the screening apparatus during aerosol generation. […]

Compound: CC1(C)O[C@@H]2C[C@H]3[C@@H]4C[C@H](F)C5=CC(=O)C=C[C@]5(C)[C@H]4[C@@H](O)C[C@]3(C)[C@]2(C(=O)CO)O1 [Flunisolide, flunisolide]
Aerosol Purity (% ± SD) (across:bottom 18:10, hole diameter 0.005″, porosity 5%): 80.1 ± 1.8% | Aerosol Purity (% ± SD) (across:bottom 18:10, hole diameter 0.005″, porosity 10%): 81.4 ± 0.9% | Aerosol Purity (% ± SD) (across:bottom 18:10, hole diameter 0.005″, porosity 20%): 90.7 ± 0.7% | Aerosol Purity (% ± SD) (across:bottom 18:10, hole diameter 0.010″, porosity 5%): 83.6 ± 1.4% | Aerosol Purity (% ± SD) (across:bottom 18:10, hole diameter 0.010″, porosity 10%): 75.4 ± 1.2% | Aerosol Purity (% ± SD) (across:bottom 18:10, hole diameter 0.010″, porosity 20%): 80.8 ± 1.4% | Aerosol Purity (% ± SD) (across:bottom 18:10, hole diameter 0.010″, porosity 40%): 85.6 ± 0.8% | Aerosol Purity (% ± SD) (across:bottom 18:10, hole diameter 0.020″, porosity 5%): 77.8 ± 2% | Aerosol Purity (% ± SD) (across:bottom 18:10, hole diameter 0.020″, porosity 10%): 77.2 ± 2.8% | Aerosol Purity (% ± SD) (across:bottom 18:10, hole diameter 0.020″, porosity 20%): 74.7 ± 1% | Aerosol Purity (% ± SD) (across:bottom 18:10, hole diameter 0.020″, porosity 40%): 81.9 ± 1.2% | Aerosol Purity (% ± SD) (across:bottom 18:10, hole diameter 0.040″, porosity 5%): 70.4 ± 1.1% | Aerosol Purity (% ± SD) (across:bottom 18:10, hole diameter 0.040″, porosity 40%): 77 ± 1% | Aerosol Purity (% ± SD) (across:bottom 23:5, hole diameter 0.005″, porosity 5%): 73.6 ± 2.3% | Aerosol Purity (% ± SD) (across:bottom 23:5, hole diameter 0.005″, porosity 10%): 82.7 ± 1.4% | Aerosol Purity (% ± SD) (across:bottom 23:5, hole diameter 0.005″, porosity 20%): 87.9 ± 2% | Aerosol Purity (% ± SD) (across:bottom 23:5, hole diameter 0.010″, porosity 5%): 76.1 ± 0.1% | Aerosol Purity (% ± SD) (across:bottom 23:5, hole diameter 0.010″, porosity 10%): 71.4 ± 0.7% | Aerosol Purity (% ± SD) (across:bottom 23:5, hole diameter 0.010″, porosity 20%): 80.6 ± 3.1% | Aerosol Purity (% ± SD) (across:bottom 23:5, hole diameter 0.010″, porosity 40%): 84.2 ± 0.1% | Aerosol Purity (% ± SD) (across:bottom 23:5, hole diameter 0.020″, porosity 5%): 77.9 ± 1.1% | Aerosol Purity (% ± SD) (across:bottom 23:5, hole diameter 0.020″, porosity 10%): 72.7 ± 1.8% | Aerosol Purity (% ± SD) (across:bottom 23:5, hole diameter 0.020″, porosity 20%): 69.9 ± 0.3% | Aerosol Purity (% ± SD) (across:bottom 23:5, hole diameter 0.020″, porosity 40%): 80 ± 1.3% | Aerosol Purity (% ± SD) (across:bottom 23:5, hole diameter 0.040″, porosity 5%): 68.6 ± 1.1% | Aerosol Purity (% ± SD) (across:bottom 23:5, hole diameter 0.040″, porosity 40%): 74.3 ± 7.3%

Compound: CN1CCN(CCCN2c3ccccc3Sc3ccc(Cl)cc32)CC1 [Prochlorperazine, prochlorperazine]
Coated Aerosol Purity (%) (coated drug on polyimide film, coating thickness 14 μm): 98.85% | aerosol purity (perforated polyimide film, 100% of air flow through the substrate, up to at least 30 μm coating thickness, 28.3 liters/minute): ≥ 98% | Aerosol Purity (%) (perforated polyimide film, large holes, across:bottom 75:25): 97.7% | Aerosol Purity (%) (perforated polyimide film, large holes, across:bottom 100:0): 97.1% | Aerosol Purity (%) (perforated polyimide film, small holes, across:bottom 75:25): 97.4% | Aerosol Purity (%) (perforated polyimide film, small holes, across:bottom 100:0): 94.8%

Compound: C[C@@H]1C[C@H]2[C@@H]3CCC4=CC(=O)C=C[C@]4(C)[C@@]3(Cl)[C@@H](O)C[C@]2(C)[C@@]1(OC(=O)c1ccco1)C(=O)CCl
aerosol purity (non-perforated SULFINERT-treated and heat-passivated 304 stainless steel, 350° C., no air flow ratio): poor

Results, then the compound that gave them:

aerosol purity (perforated polyimide film, all four test conditions (3:1 and 1:3, 325° C. and 350° C.)): > 97%
Compound: CCC(=O)O[C@]1(C(=O)SCF)[C@H](C)C[C@H]2[C@@H]3C[C@H](F)C4=CC(=O)C=C[C@]4(C)[C@@]3(F)[C@@H](O)C[C@@]21C [fluticasone propionate]

drug purity (aerosol) (perforated polyimide film, across:bottom 27:1, 350° C.): around 20%
Compound: NCC(CC(=O)O)c1ccc(Cl)cc1 (stereo not drawn) [baclofen]

aerosol purity (perforated 316 stainless steel, 1:9 across:bottom, drug coating thicknesses up to 6 μm, 28.3 liters/minute): ≥ 97% | aerosol purity (solid 304 stainless steel, 100% air flow across, drug coating thickness 2 μm): ≤ 94% | aerosol purity (solid 304 stainless steel, 100% air flow across, drug coating thicknesses greater than about 1 μm): below 97%
Compound: CCCc1nn(C)c2c(=O)[nH]c(-c3cc(S(=O)(=O)N4CCN(C)CC4)ccc3OCC)nc12 [sildenafil free base, sildenafil]

aerosol purity (perforated polyimide film, all three test conditions (6:1 at 375° C., 3:1 at 350° C., 1:1 at 350° C.)): > 99.7%
Compound: cyclobenzaprine fumarate
